The source of these data is PMC4669722, “Antitumour potential of BPT: a dual inhibitor of cdk4 and tubulin polymerization” (Cell Death & Disease, 2015).

The subject of data set [1] is NCI-H358 (NSCLC; p53 null, pRb null). The data set can be described thus: Cell proliferation (MTT) assay, NCI-H358. The class given is cell-based. Conditions: Homo sapiens, 48 h, read-out: IC50 cell growth inhibition, NCI-H358. Here is the method: (§1) All 10 human cancer cell lines were maintained at 37 °C in 5% CO2 in RPMI-1640 medium, supplemented with 10% foetal calf serum and 100 μg/ml normocin. The 10 cancer cell lines used for screening were all obtained from ATCC (Manassas, VA, USA); they were the NSCLC (a form of cancer that is resistant to chemotherapy) lines: NCI-H460 (pRb^+, p53^+), A549 (pRb^+, p53^+), Calu-1 (pRb^+, p53-null), NCI-H1299 (pRb^+, p53-null), NCI-H358 (pRb-null, p53-null); the colon cancer line LS174T (pRb^+, p53^+); the prostate cancer line PC-3 (pRb^+, p53-null); the pancreatic cancer line MiaPaca (pRb^+, p53-mutant). The genotypes within brackets indicate the status of the tumour suppressor proteins pRb and p53. The mouse embryonic normal hepatic cell line (BNL CL2) and its SV40 large T-antigen-transformed counterpart cell line (BNL SV A.8) were also purchased from ATCC. The large T-antigen inactivates the tumour suppressor proteins p53 and pRb. The detailed procedure of cell proliferation (MTT) assay and IC50 determination was described previously.[32]

The target in data set [2] is GSK3β (Homo sapiens, UniProt P49841). The experiment in a line: Kinase profiling (Millipore), GSK3β. The class given is biochemical. Here is the method: (§2) The in vitro kinase assays for testing against Cdk4-cyclin D1, Cdk2-cyclin A, Cdk1-cyclin B1 and Cdk9-cyclin T1 were performed in-house. The methodology and results have been reported previously.[20], [30], [31], [32], [45] The kinase profiling for 58 representative kinases was carrried out commercially at Millipore Bioscience Division, Livingston, UK.

A short description of data set [3]: Body weight measurements in xenograft models. In kind it is in vivo, SCID mice. Here is the method:
The body weights of animals in different treatment and control groups were monitored by taking the measurements daily during the treatment schedule. By considering the body weight at the start of the treatment as 100%, the percent weight loss was calculated on subsequent days of treatments.

For data set [4], the target named is PKCα (Homo sapiens, UniProt P17252). The experiment in a line: Kinase profiling (Millipore), PKCα. In kind it is biochemical. Here is the method:
as §2

The subject of data set [5] is PC-3 (prostate; p53 null, pRb+). The data set can be described thus: Cell proliferation (MTT) assay, PC-3. Conditions: Homo sapiens, 48 h, read-out: IC50 cell growth inhibition, PC-3. The class given is cell-based. The procedure: as §1
A short description of data set [6]: MTD finding study. The class given is in vivo. Conditions: mice. Here is the method: Swiss-albino mice were used to determine the MTD for the compound. BPT was weighed and mixed with 0.5% (w/v) carboxymethylcellulose and triturated with Tween-20 (secundum artum) with gradual addition of water to make up the final concentration. Care was taken not to exceed >0.25% of Tween-20 in the final formulation of the BPT. In this study, six animals per group were administered with BPT at different doses for 5 days (Q1D × 5) via intraperitoneal route. Animals were monitored for weight loss, morbidity symptoms and mortality up to 2 weeks by the end of treatment. Significant weight loss was considered when mean animal weight dropped by ⩾10% and was considered highly significant when the drop was ⩾20%.

Data set [7] relates to BNL SV A.8 (SV40-mediated transformed mouse embryonic hepatic cell line). The data set can be described thus: Long-term cell survival assay, BNL SV A.8. Conditions: BNL SV A.8, 12 days. The class given is cell-based. The procedure: Fig. S3: Long term survival of Mouse embryonic normal hepatic cell line (BNL CL2) and SV40 mediated transformed mouse embryonic hepatic cell line (BNL SV A.8) after the treatment with BPT. The cells were treated with the diffrent concentrations of BPT and then incubated in drug free medium for 12 days. the colonies were fixed in methanol : acetic acid (2: 1) and stained with 1% crystal violet and representative plates were scanned using the gel documentation system .

Data set [8] concerns HCT-116 tumours. The experiment in a line: HCT-116 xenograft efficacy in SCID mice. The class given is in vivo. As to conditions: 100 mpk intraperitoneal, 9 days, versus vehicle, P<0.05. Here is the method:
A group of 60 SCID (SCID strain-CBySmn.CB17-Prkdc^scid/J; The Jackson Laboratory, Bar harbor, ME, USA; Stock no. 001803) male mice weighing 18–25 g and 6–8 weeks old were used for the studies. Human colon carcinoma, HCT-116 (ATCC; cat. no. CCL-247) cells were grown in McCoy's 5A medium supplemented with 10% FBS (Sigma-Aldrich). The cultured cells were injected subcutaneously into the dorsal side of SCID mice at the dose of 6.6 × 10^6 cells in 0.2 ml of suspension. When the tumour growth reached to about 4–6 mm in diameter (over about 5 days), the animals were randomly divided into eight groups, each containing seven mice. The treatments were continued for 9 consecutive days intraperitoneally. Flavopiridol (2.5 mpk) was used as a positive control in this study. Tumour size was recorded at 2–5 day intervals. Tumour weight (mg) was estimated according to the formula for a prolate ellipsoid: (length (mm) × width (mm)^2) × 0.5) assuming specific gravity to be one and π to be 3. Tumour growth in compound treated animals is calculated as T/C (treated/control) × 100% and growth inhibition percent (% GI) was (100−% T/C).[48], [49], [50]

In data set [9] the test system is tubulin in A549 cells. The data set can be described thus: Tubulin polymerization/depolymerization in live cells (western blot). In kind it is cell-based, human. Here is the method:
A549 (NSCLC) cells were seeded at a concentration of 10 000 cells per well in 1 ml complete growth medium in 24-well per 15 mm culture plates. The plates were incubated for 24 h for cell attachment and stabilization. In the first set of experiments, the cells were treated with 10 nM paclitaxel and different concentrations of BPT for 30 min (cells underwent simultaneous treatment of paclitaxel and BPT). In the second set of experiments, to study the effect of BPT on the stabilised form of tubulin, cells were pretreated with 10 nM paclitaxel for 30 min. The cell monolayer was washed two times with sterile PBS and fresh growth medium containing different concentrations of BPT were added. The plates were further incubated for 30 min, the cell monolayers were washed two times with sterile PBS at room temperature and then 100 μl tubulin extraction buffer (1 mM MgCl2, 2 mM EGTA, 0.5% NP40 and 20 mM Tris-HCl (pH 6.8)) supplemented with 2 mM phenylmethylsulfonyl fluoride, and a protease inhibitor cocktail (Sigma-Aldrich; cat. no. P8340) was added per well. After a short and vigorous vortex mixing, the cell lysates were incubated at room temperature for 5 min and then centrifuged at 16 000 r.p.m. for 10 min to separate the soluble and polymerized tubulin fractions. […]

Broadly, the IC50 is the concentration that gives 50% inhibition.

Sequence of GSK3β (P49841 whole entry): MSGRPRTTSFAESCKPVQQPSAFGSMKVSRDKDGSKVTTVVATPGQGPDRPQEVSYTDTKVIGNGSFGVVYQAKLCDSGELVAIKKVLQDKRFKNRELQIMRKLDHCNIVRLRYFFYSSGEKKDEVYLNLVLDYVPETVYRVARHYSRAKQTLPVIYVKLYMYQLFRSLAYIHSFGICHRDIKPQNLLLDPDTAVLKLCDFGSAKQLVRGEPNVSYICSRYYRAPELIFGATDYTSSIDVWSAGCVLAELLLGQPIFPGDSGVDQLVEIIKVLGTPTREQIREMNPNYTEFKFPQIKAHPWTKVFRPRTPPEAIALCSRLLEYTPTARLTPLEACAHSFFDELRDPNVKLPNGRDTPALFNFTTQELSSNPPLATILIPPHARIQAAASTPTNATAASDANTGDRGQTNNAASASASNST

Regarding `O=C(c1ccccc1-c1ccccc1)N1CCc2c([nH]c3ccccc23)C1` [BPT, 2-(biphenyl-2-carbonyl)-2,3,4,9-tetrahydro-1H-pyrido[3,4-b]indole], the IC50 is 680 nM in [1], above 10 µM in [2], above 10 µM in [4] and 740 nM in [5]. The “weight loss of treated animals” value was below 10% in data set [3] (SCID mice-HCT116 tumour model, 100 mpk, of starting weight); “statistically insignificant weight loss” in [3] (both tumour models (HCT-116 and NCI-H460)). Besides, the maximum-tolerated dose in [6] was 1000 mg/kg. Further, the “number of colonies, long-term survival” value in [7] was “selectively reduces the number of colonies”. Also, the tumour growth inhibition in data set [8] is ~ 80%. Moreover, in [9] (A549, simultaneous 10 nM paclitaxel and BPT, 30 min), the “paclitaxel-mediated tubulin polymerization in live cells” value is “inhibited in a dose-dependent manner”. The “depolymerization of paclitaxel-stabilized tubulin in live cells” value in data set [9] (A549 pretreated with 10 nM paclitaxel 30 min, then BPT 30 min) is recorded as “enhanced the tubulin depolymerization”.
